Experiments:
[1] = toxicokinetics, exploratory 14-day mouse study; assay type: in vivo; conditions: both sexes, CD-1, mouse, plasma, po, mice, read-out: Mean Day 14 AUC0-last
Method: A single oral dose study with a 14-day repeat-dose phase was conducted in male and female mice. 250 mg/kg was selected as the highest dose for the repeat dose portion of the study.

[2] = toxicokinetics, 28-day mouse study; assay type: in vivo; conditions: mice; for AUC / Cmax: Crl:CD1 (ICR), mouse, plasma, po;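 as to AUCLST: AUC to the last measurable time point (AUClast)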
Excerpt: There were no notable sex-related differences in Compound 1 exposure.
Additionally, toxicokinetic animals received the vehicle or compound in the same manner and dose levels as the main study groups.

[3] = plasma exposure in HLA-B27/Huβ2m rats; conditions: HLA B27 Tg rat, 20 mg/kg
Excerpt: In each disease model, steady-state pharmacokinetics were characterized.

[4] = toxicokinetics, single dose and 14-day monkey study; assay type: in vivo; conditions: cynomolgus monkey, plasma, po, monkeys
Method: In cynomolgus monkeys, a 7-day repeat dose toxicity study was conducted with doses up to 250 mg/kg/day. […] To aid in dose selection for a subsequent pivotal study, an additional study was conducted to determine the maximum feasible dose under optimal feeding conditions in cynomolgus monkeys. […] Dosing monkeys in the fasted state prior to dosing yielded more consistently higher exposures. Therefore, a dose of 375 mg/kg in 0.5% methyl cellulose (400 cps) and 0.1% Tween 80 administered to fasted monkeys was selected for the 14-day repeat-dose phase of the study, and was considered the maximum feasible dose.

[5] = toxicokinetics, 28-day monkey study; assay type: in vivo, cynomolgus monkey; conditions: for Cmax / AUC: po; for dose proportionality of systemic exposure (AUCLST): monkeys
CAIA in BALB/c mice = experiment: collagen antibody-induced arthritis (CAIA) model; assay type: in vivo, mouse
[6] = female, 15 mg/kg/day, Study Day 1, female, 15 mg/kg/day
[7] = female, 15 mg/kg/day, Study Day 21, female, 15 mg/kg/day
[8] = female, 100 mg/kg/day, Study Day 1, female, 100 mg/kg/day
[9] = female, 100 mg/kg/day, Study Day 21, female, 100 mg/kg/day
[10] = female, 750 mg/kg/day, Study Day 1, female, 750 mg/kg/day
[11] = female, 750 mg/kg/day, Study Day 21, female, 750 mg/kg/day
[12] = male, 15 mg/kg/day, Study Day 1, male, 15 mg/kg/day
[13] = male, 15 mg/kg/day, Study Day 21, male, 15 mg/kg/day
[14] = male, 100 mg/kg/day, Study Day 1, male, 100 mg/kg/day
[15] = male, 100 mg/kg/day, Study Day 21, male, 100 mg/kg/day
[16] = male, 750 mg/kg/day, Study Day 1, male, 750 mg/kg/day
[17] = male, 750 mg/kg/day, Study Day 21, male, 750 mg/kg/day

For `CCOCc1cnc(Cl)nc1Oc1ccc2c(ccc3sc4c(c32)NC[C@@H](C)NC4=O)n1` [Compound 1], which AUC(0-t) ([1]; 15 mg/kg/day) is on record?
The AUC(0-t) was 4820 ng·h/mL.

What about the AUC(0-t) ([1]; 75 mg/kg/day) of the same compound?
Its AUC(0-t) is 16600 ng·h/mL.

And the AUC(0-t) ([1]; 250 mg/kg/day)?
Its AUC(0-t) is 35100 ng·h/mL.

What about the AUC [2, 6] of the same compound?
The AUC was 5360 ng·h/mL.

And the Cmax [2, 6]?
The Cmax was 2980 ng/mL.

What about the AUC [2, 7] of the same compound?
The AUC was 5980 ng·h/mL.

And the Cmax [2, 7]?
Its Cmax is 2970 ng/mL.

And the AUC [2, 8]?
Its AUC is 40100 ng·h/mL.

And the Cmax [2, 8]?
Its Cmax is 14500 ng/mL.

And the AUC [2, 9]?
Its AUC is 32800 ng·h/mL.

And the Cmax [2, 9]?
Its Cmax is 12300 ng/mL.

What about the AUC [2, 10] of the same compound?
Its AUC is 198000 ng·h/mL.

And the Cmax [2, 10]?
The Cmax was 50300 ng/mL.

And the AUC [2, 11]?
The AUC was 135000 ng·h/mL.

What about the Cmax [2, 11] of the same compound?
Its Cmax is 23200 ng/mL.

What about the AUC [2, 12] of the same compound?
Its AUC is 4410 ng·h/mL.

What about the Cmax [2, 12] of the same compound?
Its Cmax is 2930 ng/mL.

And the AUC [2, 13]?
The AUC was 4460 ng·h/mL.

What about the Cmax [2, 13] of the same compound?
The Cmax was 2420 ng/mL.

And the AUC [2, 14]?
The AUC was 29200 ng·h/mL.

And the Cmax [2, 14]?
The Cmax was 13900 ng/mL.

What about the AUC [2, 15] of the same compound?
Its AUC is 24900 ng·h/mL.

And the Cmax [2, 15]?
Its Cmax is 11700 ng/mL.

What about the AUC [2, 16] of the same compound?
Its AUC is 211000 ng·h/mL.

What about the Cmax [2, 16] of the same compound?
Its Cmax is 29800 ng/mL.

And the AUC [2, 17]?
The AUC was 92800 ng·h/mL.

And the Cmax [2, 17]?
Its Cmax is 19400 ng/mL.

And the “dose proportionality of systemic exposure (AUCLST)” value (“dose proportionality” for short) ([2]; Day 1, 15 to 750 mg/kg/day)?
The value was “approximately dose-proportional manner”.

What about the “dose proportionality” value ([2]; Day 21, 15 to 750 mg/kg/day) of the same compound?
Its value is “less than dose-proportional manner”.

What about the AUC [3] of the same compound?
The AUC was 2820 ng·h/mL.

What about the AUC(0-t) ([4]; 375 mg/kg, 375 mg/kg, fasted, read-out: Mean Day 1 AUC0-t) of the same compound?
Its AUC(0-t) is 11500 ng·h/mL.

And the AUC(0-t) ([4]; 375 mg/kg, 375 mg/kg, non-fasted, read-out: Mean Day 1 AUC0-t)?
The AUC(0-t) was 4060 ng·h/mL.

What about the AUC(0-t) ([4]; 375 mg/kg/day, fasted, 375 mg/kg/day, read-out: Mean Day 14 AUC0-t) of the same compound?
The AUC(0-t) was 5510 ng·h/mL.

What about the AUC(0-t) ([4]; 500 mg/kg, 500 mg/kg, fasted, read-out: Mean Day 1 AUC0-t) of the same compound?
The AUC(0-t) was 14300 ng·h/mL.

And the AUC(0-t) ([4]; 500 mg/kg, 500 mg/kg, non-fasted, read-out: Mean Day 1 AUC0-t)?
Its AUC(0-t) is 11400 ng·h/mL.

And the AUC(0-t) ([5]; cynomolgus monkey, plasma, oral, female monkeys, read-out: AUC0-24, steady state exposure at the NOAEL)?
The AUC(0-t) was about 7840 ng·h/mL.

And the Cmax ([5]; cynomolgus monkey, plasma, monkey, Study Day 1, male, 375 mg/kg/day)?
The Cmax was 1960 ng/mL.

And the Cmax ([5]; cynomolgus, cynomolgus monkey, plasma, monkey, Study Day 21, female, 375 mg/kg/day)?
The Cmax was 810 ng/mL.

What about the Cmax ([5]; cynomolgus, cynomolgus monkey, plasma, monkey, Study Day 21, male, 375 mg/kg/day) of the same compound?
The Cmax was 2340 ng/mL.

What about the Cmax ([5]; female, cynomolgus monkey, plasma, 15 mg/kg/day, monkey, Study Day 1, female, 15 mg/kg/day (so in the source)) of the same compound?
The Cmax was 862 ng/mL.

And the AUC ([5]; female, cynomolgus monkey, plasma, 15 mg/kg/day, monkey, Study Day 1, female, 15 mg/kg/day (so in the source), read-out: AUCLST)?
Its AUC is 3090 ng·h/mL.

And the Cmax ([5]; female, cynomolgus monkey, plasma, 150 mg/kg/day, monkey, Study Day 1, female, 150 mg/kg/day)?
Its Cmax is 1390 ng/mL.

What about the AUC ([5]; female, cynomolgus monkey, plasma, 150 mg/kg/day, monkey, Study Day 1, female, 150 mg/kg/day, read-out: AUCLST) of the same compound?
Its AUC is 6330 ng·h/mL.

What about the AUC ([5]; female, cynomolgus monkey, plasma, 150 mg/kg/day, monkey, Study Day 21, female, 150 mg/kg/day, read-out: AUCLST) of the same compound?
Its AUC is 7840 ng·h/mL.

And the AUC ([5]; female, cynomolgus monkey, plasma, 375 mg/kg/day, monkey, Study Day 1, female, 375 mg/kg/day, read-out: AUCLST)?
The AUC was 16700 ng·h/mL.

And the AUC ([5]; female, cynomolgus monkey, plasma, 375 mg/kg/day, monkey, Study Day 21, female, 375 mg/kg/day, read-out: AUCLST)?
Its AUC is 4220 ng·h/mL.

What about the Cmax ([5]; female, cynomolgus, cynomolgus monkey, plasma, 15 mg/kg/day, monkey, Study Day 21, female, 15 mg/kg/day (so in the source)) of the same compound?
Its Cmax is 818 ng/mL.

What about the AUC ([5]; female, cynomolgus, cynomolgus monkey, plasma, 15 mg/kg/day, monkey, Study Day 21, female, 15 mg/kg/day (so in the source), read-out: AUCLST) of the same compound?
Its AUC is 2460 ng·h/mL.

And the Cmax ([5]; female, cynomolgus, cynomolgus monkey, plasma, 150 mg/kg/day, monkey, Study Day 21, female, 150 mg/kg/day)?
Its Cmax is 1620 ng/mL.

And the Cmax ([5]; male, cynomolgus monkey, plasma, 15 mg/kg/day, monkey, Study Day 1, male, 15 mg/kg/day (so in the source))?
The Cmax was 623 ng/mL.

And the AUC ([5]; male, cynomolgus monkey, plasma, 15 mg/kg/day, monkey, Study Day 1, male, 15 mg/kg/day (so in the source), read-out: AUCLST)?
Its AUC is 1750 ng·h/mL.

And the Cmax ([5]; male, cynomolgus monkey, plasma, 15 mg/kg/day, monkey, Study Day 21, male, 15 mg/kg/day (so in the source))?
The Cmax was 465 ng/mL.

And the Cmax ([5]; male, cynomolgus monkey, plasma, 150 mg/kg/day, monkey, Study Day 1, male, 150 mg/kg/day)?
Its Cmax is 1240 ng/mL.

And the AUC ([5]; male, cynomolgus monkey, plasma, 150 mg/kg/day, monkey, Study Day 1, male, 150 mg/kg/day, read-out: AUCLST)?
Its AUC is 5840 ng·h/mL.

And the Cmax ([5]; male, cynomolgus monkey, plasma, 150 mg/kg/day, monkey, Study Day 21, male, 150 mg/kg/day)?
Its Cmax is 674 ng/mL.

And the AUC ([5]; male, cynomolgus monkey, plasma, 375 mg/kg/day, male monkeys (375 mg/kg/day), steady-state, read-out: NOAEL with respect to AUCLST)?
Its AUC is 8790 ng·h/mL.

And the AUC ([5]; male, cynomolgus monkey, plasma, 375 mg/kg/day, monkey, Study Day 1, male, 375 mg/kg/day, read-out: AUCLST)?
Its AUC is 14100 ng·h/mL.

What about the AUC ([5]; male, cynomolgus, cynomolgus monkey, plasma, 15 mg/kg/day, monkey, Study Day 21, male, 15 mg/kg/day (so in the source), read-out: AUCLST) of the same compound?
Its AUC is 1280 ng·h/mL.

And the AUC ([5]; male, cynomolgus, cynomolgus monkey, plasma, 150 mg/kg/day, monkey, Study Day 21, male, 150 mg/kg/day, read-out: AUCLST)?
The AUC was 3950 ng·h/mL.

What about the AUC ([5]; male, cynomolgus, cynomolgus monkey, plasma, 375 mg/kg/day, monkey, Study Day 21, male, 375 mg/kg/day, read-out: AUCLST) of the same compound?
Its AUC is 8790 ng·h/mL.

What about the “dose proportionality” value ([5]; Day 1, 50 to 375 mg/kg/day) of the same compound?
Its value is “approximately dose-proportional manner”.

And the “dose proportionality” value ([5]; Day 20, 50 to 375 mg/kg/day)?
The value was “less than dose-proportional manner”.

What about the “% Inhibition, paw swelling” value (CAIA in BALB/c mice; 3 mg/kg, last day of dosing) of the same compound?
The value was 89.7% paw.

And the “Minimally Efficacious Dose” value (CAIA in BALB/c mice; endpoint paw swelling)?
Its value is 3 mg/kg.

— patent US20220251105A1, “METHODS OF TREATING A MK2-MEDIATED DISORDER” (Celgene CAR LLC, priority 2019, published 2022)
